Where “and” joins values, the source holds several entries; their conditions need not be identical. Equal entries are not always repeated. Toxic doses and inconclusive results are not listed. Rule as the data show it: active = T/C of 150% or more; inactive = T/C below 125%.
Tested on: L1210 leukemia ip in BDF1 mice, survival T/C
Assay: NCI In Vivo Anticancer Drug Screen. Data for tumor model L1210 Leukemia (intraperitoneal) in B6D2F1 (BDF1) mice
Conditions: endpoint: mean survival time, higher = longer survival
Procedure, shortened: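 Tumor cells were implanted, animals were treated, and survival was followed. The result divides the treated measurement by the vehicle-control measurement.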

[1] = dose: 50.0 mg/kg/injection, schedule: Q01DX001 (ip), vehicle: carboxymethylcellulose (CMC)
[2] = dose: 100.0 mg/kg/injection, schedule: Q01DX009 (ip), vehicle: Klucel (hydroxypropylcellulose) (HPC)
[3] = dose: 100.0 mg/kg/injection, schedule: Q04DX003 (ip), vehicle: Klucel (hydroxypropylcellulose) (HPC)
[4] = dose: 200.0 mg/kg/injection, schedule: Q01DX009 (ip), vehicle: Klucel (hydroxypropylcellulose) (HPC)
[5] = dose: 200.0 mg/kg/injection, schedule: Q04DX003 (ip), vehicle: Klucel (hydroxypropylcellulose) (HPC)
[6] = dose: 400.0 mg/kg/injection, schedule: Q01DX009 (ip), vehicle: Klucel (hydroxypropylcellulose) (HPC)
[7] = dose: 400.0 mg/kg/injection, schedule: Q04DX003 (ip), vehicle: Klucel (hydroxypropylcellulose) (HPC)
[8] = dose: 100.0 mg/kg/injection, schedule: Q04DX002 (ip), vehicle: Klucel (hydroxypropylcellulose) (HPC)
[9] = dose: 200.0 mg/kg/injection, schedule: Q04DX002 (ip), vehicle: Klucel (hydroxypropylcellulose) (HPC)
[10] = dose: 50.0 mg/kg/injection, schedule: Q01DX001 (ip), vehicle: saline
[11] = dose: 100.0 mg/kg/injection, schedule: Q01DX001 (ip), vehicle: saline
[12] = dose: 200.0 mg/kg/injection, schedule: Q01DX001 (ip), vehicle: saline
[13] = dose: 100.0 mg/kg/injection, schedule: Q01DX001 (ip), vehicle: carboxymethylcellulose (CMC)
[14] = dose: 200.0 mg/kg/injection, schedule: Q01DX001 (ip), vehicle: carboxymethylcellulose (CMC)
[15] = dose: 400.0 mg/kg/injection, schedule: Q01DX001 (ip), vehicle: carboxymethylcellulose (CMC)
[16] = dose: 400.0 mg/kg/injection, schedule: Q01DX001 (ip), vehicle: saline
[17] = dose: 100.0 mg/kg/injection, schedule: Q01DX009 (ip), vehicle: saline
[18] = dose: 200.0 mg/kg/injection, schedule: Q01DX009 (ip), vehicle: saline
[19] = dose: 400.0 mg/kg/injection, schedule: Q01DX009 (ip), vehicle: saline

Measured: T/C

c1nc2c([nH]1)CCCC2
inactive: dose: 25.0 mg/kg/injection, schedule: Q01DX001 (ip), vehicle: carboxymethylcellulose (CMC) 106 % of control | dose: 25.0 mg/kg/injection, schedule: Q01DX009 (ip), vehicle: carboxymethylcellulose (CMC) 103 % of control and 91 % of control | dose: 25.0 mg/kg/injection, schedule: Q04DX002 (ip), vehicle: carboxymethylcellulose (CMC) 94 % of control and 102 % of control | dose: 25.0 mg/kg/injection, schedule: Q04DX003 (ip), vehicle: carboxymethylcellulose (CMC) 95 % of control | [1] 102 % of control | dose: 50.0 mg/kg/injection, schedule: Q01DX009 (ip), vehicle: carboxymethylcellulose (CMC) 94 % of control and 92 % of control | dose: 50.0 mg/kg/injection, schedule: Q04DX002 (ip), vehicle: carboxymethylcellulose (CMC) 94 % of control and 104 % of control | dose: 50.0 mg/kg/injection, schedule: Q04DX003 (ip), vehicle: carboxymethylcellulose (CMC) 105 % of control | dose: 100.0 mg/kg/injection, schedule: Q04DX003 (ip), vehicle: carboxymethylcellulose (CMC) 92 % of control

CCC(C)(C)c1cccc2ccccc12
inactive: [2] 96 % of control | [3] 102 % of control | [4] 100 % of control | [5] 106 % of control | [6] 86 % of control | [7] 101 % of control

[O-]c1c[n+](-c2ccc(Cl)cc2Cl)no1
inactive: dose: 50.0 mg/kg/injection, schedule: Q04DX002 (ip), vehicle: Klucel (hydroxypropylcellulose) (HPC) 100 % of control | [2] 100 % of control | [8] 106 % of control | [9] 103 % of control

CN(CCO)CC1COc2ccccc2O1 (stereo not drawn)
inactive: [10] 97 % of control | [11] 105 % of control | [12] 88 % of control

O=C1OC(OC(=O)c2ccccc2)C(Br)=C1Br (stereo not drawn)
inactive: [3] 98 % of control | [5] 104 % of control

Cc1ccccc1C1=CCCCC1
inactive: [1] 87 % of control | [13] 104 % of control | [14] 96 % of control | [15] 97 % of control

CCCOC(=O)c1ccc([N+](=O)[O-])o1
inactive: dose: 100.0 mg/kg/injection, schedule: Q01DX001 (ip), vehicle: Klucel (hydroxypropylcellulose) (HPC) 95 % of control | dose: 200.0 mg/kg/injection, schedule: Q01DX001 (ip), vehicle: Klucel (hydroxypropylcellulose) (HPC) 92 % of control

N#CC(c1ccccc1)c1ccc(F)cc1 (stereo not drawn)
inactive: [2] 104 % of control | [3] 100 % of control | [4] 97 % of control | [5] 96 % of control | [6] 98 % of control | [7] 98 % of control

C=CC(=O)NC1CCCCC1
inactive: dose: 25.0 mg/kg/injection, schedule: Q01DX009 (ip), vehicle: Klucel (hydroxypropylcellulose) (HPC) 97 % of control | dose: 50.0 mg/kg/injection, schedule: Q01DX009 (ip), vehicle: Klucel (hydroxypropylcellulose) (HPC) 95 % of control | [2] 102 % of control | [3] 100 % of control | [5] 98 % of control | [7] 100 % of control

CCn1c(=O)sc2cc(Cl)ccc21
inactive: [11] 102 % of control | [12] 98 % of control | [16] 108 % of control

O=C(O)c1ccccc1C(=O)c1ccc(Br)cc1
inactive: [3] 93 % of control | [5] 96 % of control | [7] 104 % of control

Nc1nc2nc(-c3ccccc3)nc(N)c2nc1-c1ccc(N(CCO)CCO)cc1
inactive: dose: 45.0 mg/kg/injection, schedule: Q01DX001 (ip), vehicle: saline 102 % of control | dose: 67.0 mg/kg/injection, schedule: Q01DX001 (ip), vehicle: saline 108 % of control | dose: 150.0 mg/kg/injection, schedule: Q01DX001 (ip), vehicle: saline 91 % of control | [12] 95 % of control | [16] 95 % of control

O=C(Nc1ccccc1F)OCCOc1ccc(-c2ccccc2)cc1
inactive: [2] 96 % of control | [4] 95 % of control | [6] 98 % of control

O=C1C(=O)c2ccccc2C(O)=C1CC=C1CCCC1
inactive: dose: 100.0 mg/kg/injection, schedule: Q01DX001 (ip), vehicle: water 109 % of control | dose: 100.0 mg/kg/injection, schedule: Q01DX009 (ip), vehicle: water 105 % of control | dose: 200.0 mg/kg/injection, schedule: Q01DX009 (ip), vehicle: water 103 % of control

CCN(CC)CCCC(C)Nc1cccc2c1C(=O)c1ccccc1C2=O (stereo not drawn)
inactive: dose: 25.0 mg/kg/injection, schedule: Q01DX009 (ip), vehicle: saline 100 % of control | dose: 25.0 mg/kg/injection, schedule: Q04DX002 (ip), vehicle: saline 95 % of control | dose: 50.0 mg/kg/injection, schedule: Q01DX009 (ip), vehicle: saline 93 % of control | dose: 50.0 mg/kg/injection, schedule: Q04DX002 (ip), vehicle: saline 92 % of control | [17] 93 % of control | dose: 100.0 mg/kg/injection, schedule: Q04DX002 (ip), vehicle: saline 100 % of control and 92 % of control

CCOCCCCO
inactive: [17] 96 % of control | [18] 92 % of control | [19] 94 % of control

CC(=O)NN(N=O)C(C)c1ccccc1 (stereo not drawn)
inactive: [8] 108 % of control | [9] 105 % of control

Nc1ccc(N=Nc2ccccc2)c(N)c1
inactive: [17] 95 % of control | [18] 101 % of control | [19] 95 % of control

CCCCn1cnc2c(SC)ncnc21
inactive: [10] 101 % of control | [11] 107 % of control | [12] 103 % of control

NC(=O)NNC(=O)NNC(N)=O
inactive: [1] 95 % of control | [13] 95 % of control | [14] 95 % of control | [15] 103 % of control

O=P(O)(O)/C=C/c1ccccc1
inactive: [11] 97 % of control | [3] 90 % of control | [12] 91 % of control | [5] 98 % of control | [16] 98 % of control

CNc1c(Cl)cc(/C=C2\C=Cc3ccccc32)cc1Cl
inactive: [13] 101 % of control | [14] 101 % of control | [15] 95 % of control

CC(=O)OC1CCC2(C)C3CCC4(C)C(c5ccc(=O)oc5)CC5OC54C3CCC2(O)C1 (stereo not drawn)
inactive: dose: 1.0 mg/kg/injection, schedule: Q01DX001 (sc), vehicle: steriod suspending solution 98 % of control | dose: 2.0 mg/kg/injection, schedule: Q01DX001 (sc), vehicle: steriod suspending solution 96 % of control | dose: 4.0 mg/kg/injection, schedule: Q01DX001 (sc), vehicle: steriod suspending solution 96 % of control | dose: 8.0 mg/kg/injection, schedule: Q01DX001 (sc), vehicle: steriod suspending solution 107 % of control | dose: 12.0 mg/kg/injection, schedule: Q01DX001 (sc), vehicle: steriod suspending solution 113 % of control | dose: 16.0 mg/kg/injection, schedule: Q01DX001 (sc), vehicle: steriod suspending solution 107 % of control | dose: 32.0 mg/kg/injection, schedule: Q01DX001 (sc), vehicle: steriod suspending solution 114 % of control | dose: 64.0 mg/kg/injection, schedule: Q01DX001 (sc), vehicle: steriod suspending solution 103 % of control | dose: 128.0 mg/kg/injection, schedule: Q01DX001 (sc), vehicle: steriod suspending solution 115 % of control

CCOC(=O)c1ccc(NC(=S)Nc2ccccc2)cc1N(CC)CC
inactive: [2] 101 % of control | [4] 97 % of control | [6] 104 % of control

CCNc1nc(Cl)nc(N(CC)CC)n1
inactive: dose: 100.0 mg/kg/injection, schedule: Q01DX009 (ip), vehicle: saline with Tween-80 91 % of control | dose: 200.0 mg/kg/injection, schedule: Q01DX009 (ip), vehicle: saline with Tween-80 98 % of control | dose: 400.0 mg/kg/injection, schedule: Q01DX009 (ip), vehicle: saline with Tween-80 89 % of control

OC1c2ccccc2C(O)C2C3C=CC(C3)C12 (stereo not drawn)
inactive: [1] 87 % of control | [13] 97 % of control | [14] 100 % of control | [15] 97 % of control

Cc1ccc([N+](=O)[O-])cc1NC(=O)OCC1CCCO1 (stereo not drawn)
inactive: [8] 87 % of control | [9] 87 % of control | dose: 400.0 mg/kg/injection, schedule: Q04DX002 (ip), vehicle: Klucel (hydroxypropylcellulose) (HPC) 97 % of control

CCC[CH2][Ge]([CH2]CCC)([CH2]CCC)[N]1C(=O)c2ccccc2C1=O
inactive: [1] 102 % of control | [10] 100 % of control | [13] 96 % of control | [11] 102 % of control | [14] 103 % of control | [12] 96 % of control | [15] 105 % of control | [16] 108 % of control

Source: PubChem BioAssay AID248 (DTP/NCI, 2004)
